Here are results for one substance from patent US11439708B2, “Nanotube trans-membrane channels mimicking biological porins” (LAWRENCE LIVERMORE NATIONAL SECURITY, LLC, priority 2014, dated 2022).

A short description of assay [1]: Single channel recordings of conductance in supported lipid bilayer. Type of assay: biochemical. To be noted: 1 M KCl, transmembrane potential 75 mV, positive control.
On the set-up of assay [2]: unit not given here. The following applies: literature value (ref 30); cited from earlier work.

In the case of gramicidin A, the “conductance of Gramicidin channels” value in assay [1] is reported as 0.058±0.008 nS. Besides, the “reported conductance of gramicidin” value in assay [2] is listed as 0.0459±0.005.
